# Results as given in patent publication US20240025862A1, “SUBSTITUTED N-PHENYLURACILS AND SALTS THEREOF, AND USE THEREOF AS HERBICIDAL ACTIVE SUBSTANCES” (Bayer Aktiengesellschaft, priority 2020, published 2024).
# Columns and labels:
# Format in all cases: in vivo
# [1] = system: Setaria viridis (SETVI); assay: Post-emergence herbicidal action, greenhouse pot test (also comparative test C); details: for Post-emergence action against SETVI: 20 g/ha
# Outline: (§1)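 Green parts of one-leaf-stage plants are sprayed at 600 l/ha with formulated compound plus 0.5% additive, then kept under optimum greenhouse conditions for about 3 weeks. Damage is scored visually, where 100% means dead plants and 0% means no difference from controls.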
# [2] = system: Matricaria inodora (MATIN); assay: as above
# Outline: as §1
# [3] = system: Echinochloa crus-galli (ECHCG); assay: as above; details: for Post-emergence action at 1.25 g/ha against ECHCG in %: rated visually after about 3 weeks vs untreated controls, 100% = plants have died
# Outline: as §1
# [4] = system: Alopecurus myosuroides (ALOMY); assay: as above; details: rated visually after about 3 weeks vs untreated controls, 100% = plants have died
# Outline: as §1
# [5] = system: Abutilon theophrasti (ABUTH); assay: Post-emergence herbicidal action, greenhouse pot test; details: rated visually after about 3 weeks vs untreated controls, 100% = plants have died
# Outline: (§2)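 Activity was scored by eye about 3 weeks after treatment against untreated plants, where 100% means dead plants and 0% means no difference. Plants at the one-leaf stage received a foliar spray of WP or EC formulations in water plus 0.5% additive (600 l/ha, up to 20 g/ha). Plants were grown in sandy loam pots in a greenhouse for 2–3 weeks before spraying.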
# [6] = system: Polygonum convolvulus (POLCO); assay: as above
# Outline: as §2
# [7] = system: Pharbitis purpurea (PHBPU); assay: as above
# Outline: as §2
# [8] = system: Veronica persica (VERPE); assay: as above
# Outline: as §2
# [9] = system: Viola tricolor (VIOTR); assay: as above
# Outline: as §2
# [10] = system: Avena fatua (AVEFA); assay: as above; details: 20 g/ha, rated visually after about 3 weeks vs untreated controls, 100% = plants have died
# Outline: as §2
# [11] = system: Lolium rigidum (LOLRI); assay: as above; details: dosage 20 g/ha
# Outline: as §2
# [12] = system: Amaranthus retroflexus (AMARE); assay: as above; details: rated visually after about 3 weeks vs untreated controls, 100% = plants have died
# Outline: as §2
# [13] = system: Zea mays (ZEAMX); assay: Post-emergence crop plant compatibility, greenhouse pot test; details: 1.25 g/ha, vs untreated controls
# Outline: (§3)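 Compatibility was scored as visual % effect against untreated controls about 3 weeks after spraying green plant parts at the one-leaf stage. Formulations (WP/EC) were applied in aqueous form with 0.5% additive, 600 l/ha, to greenhouse-grown pot plants.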
# [14] = system: Triticum aestivum (TRZAS); assay: as above; details: vs untreated controls
# Outline: as §3
# [15] = system: Oryza sativa (ORYSA); assay: Post-emergence crop plant compatibility, greenhouse pot test (also comparative test C); details: vs untreated controls
# Outline: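 Visual damage versus untreated plants (0% = like control, 100% = plants died) was scored about 3 weeks after a post-emergence spray in greenhouse pots. Treatment: one-leaf stage, WP or EC in water at 600 l/ha with 0.5% additive; a/b/c mark different dosages on the same crop.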
SMILES,Post-emergence action against SETVI [1] [%],Post-emergence action against SETVI in % ([1]; dosage 1.25 g/ha) [%],Post-emergence action against SETVI in % ([1]; dosage 5 g/ha) [%],Post-emergence action against MATIN in % ([2]; dosage 5 g/ha) [%],Post-emergence action against MATIN in % ([2]; dosage 20 g/ha) [%],Post-emergence action against ECHCG in % ([3]; dosage 5 g/ha) [%],Post-emergence action against ECHCG in % ([3]; dosage 20 g/ha) [%],Post-emergence action at 20 g/ha against ALOMY in % [4] [%],Post-emergence action at 1.25 g/ha against ABUTH in % [5] [%],Post-emergence action at 5 g/ha against ABUTH in % [5] [%],Post-emergence action at 20 g/ha against ABUTH in % [5] [%],Post-emergence action against POLCO in % ([6]; dosage 5 g/ha) [%],Post-emergence action against POLCO in % ([6]; dosage 20 g/ha) [%],Post-emergence action against PHBPU in % ([7]; dosage 1.25 g/ha) [%],Post-emergence action against PHBPU in % ([7]; dosage 5 g/ha) [%],Post-emergence action against PHBPU in % ([7]; dosage 20 g/ha) [%],Post-emergence action against VERPE ([8]; 1.25 g/ha) [%],Post-emergence action against VERPE ([8]; 5 g/ha) [%],Post-emergence action against VERPE ([8]; 20 g/ha) [%],Post-emergence action against VIOTR ([9]; 1.25 g/ha) [%],also measured
Cn1c(C(F)(F)F)cc(=O)n(-c2cc(Oc3ccccc3OCC(=O)OCc3ccccn3)c(Br)cc2F)c1=O [I.8-276],100,100,100,80,100,100,100,100,100,100,100,100,100,100,100,100,100,100,100,100,Post-emergence action against MATIN in % ([2]; dosage 1.25 g/ha): 80%; Post-emergence action at 5 g/ha against ALOMY in % [4]: 80%; Post-emergence action against VIOTR ([9]; 5 g/ha): 100%; Post-emergence action against VIOTR ([9]; 20 g/ha): 100%; Post-emergence action at 20 g/ha against AVEFA in % [10]: 80%; Post-emergence action against LOLRI in % [11]: 100%; Post-emergence action at 1.25 g/ha against AMARE in % [12]: 100%; Post-emergence action at 5 g/ha against AMARE in % [12]: 100%; Post-emergence action at 20 g/ha against AMARE in % [12]: 100%; Post-emergence action against ZEAMX (crop plant compatibility) [13]: 20%; Post-emergence action against TRZAS (crop plant compatibility) ([14]; 1.25 g/ha): 20%; Post-emergence action against TRZAS (crop plant compatibility) ([14]; 5 g/ha): 20%; Post-emergence action against ORYSA (crop plant compatibility) ([15]; 1.25 g/ha): 20%
COCCOC(=O)COc1ccccc1Oc1cc(-n2c(=O)cc(C(F)(F)F)n(C)c2=O)c(F)cc1Br [I.8-1],100,100,100,100,100,100,100,100,100,100,100,100,100,100,100,100,100,100,100,100,Post-emergence action against MATIN in % ([2]; dosage 1.25 g/ha): 100%; Post-emergence action at 1.25 g/ha against ECHCG in % [3]: 80%; Post-emergence action at 5 g/ha against ALOMY in % [4]: 100%; Post-emergence action against POLCO in % ([6]; dosage 1.25 g/ha): 90%; Post-emergence action against VIOTR ([9]; 5 g/ha): 100%; Post-emergence action against VIOTR ([9]; 20 g/ha): 100%; Post-emergence action at 20 g/ha against AVEFA in % [10]: 80%; Post-emergence action against LOLRI in % [11]: 80%; Post-emergence action at 1.25 g/ha against AMARE in % [12]: 100%; Post-emergence action at 5 g/ha against AMARE in % [12]: 100%; Post-emergence action at 20 g/ha against AMARE in % [12]: 100%; Post-emergence action against ZEAMX (crop plant compatibility) [13]: 20%; Post-emergence action against TRZAS (crop plant compatibility) ([14]; 1.25 g/ha): 20%; Post-emergence action against ORYSA (crop plant compatibility) ([15]; 1.25 g/ha): 0%; Post-emergence action against ORYSA (crop plant compatibility) ([15]; 5 g/ha): 20%
Cn1c(C(F)(F)F)cc(=O)n(-c2cc(Oc3ccccc3OCC(=O)OCCC#N)c(Cl)cc2F)c1=O [I.7-179],100,100,100,100,100,100,100,100,100,100,100,100,100,100,100,100,100,100,100,100,Post-emergence action against MATIN in % ([2]; dosage 1.25 g/ha): 80%; Post-emergence action against VIOTR ([9]; 5 g/ha): 100%; Post-emergence action against VIOTR ([9]; 20 g/ha): 100%; Post-emergence action at 20 g/ha against AVEFA in % [10]: 80%; Post-emergence action against LOLRI in % [11]: 100%; Post-emergence action at 1.25 g/ha against AMARE in % [12]: 100%; Post-emergence action at 5 g/ha against AMARE in % [12]: 100%; Post-emergence action at 20 g/ha against AMARE in % [12]: 100%; Post-emergence action against ZEAMX (crop plant compatibility) [13]: 0%; Post-emergence action against TRZAS (crop plant compatibility) ([14]; 1.25 g/ha): 0%; Post-emergence action against TRZAS (crop plant compatibility) ([14]; 5 g/ha): 0%; Post-emergence action against ORYSA (crop plant compatibility) ([15]; 1.25 g/ha): 0%
Cn1c(C(F)(F)F)cc(=O)n(-c2cc(Oc3ccccc3OCC(=O)OCC3CCOC3)c(Cl)cc2F)c1=O (stereo not drawn) [I.7-72],100,100,100,100,100,100,100,100,100,100,100,100,100,100,100,100,90,100,100,100,Post-emergence action at 1.25 g/ha against ECHCG in % [3]: 80%; Post-emergence action against POLCO in % ([6]; dosage 1.25 g/ha): 80%; Post-emergence action against VIOTR ([9]; 5 g/ha): 100%; Post-emergence action against VIOTR ([9]; 20 g/ha): 100%; Post-emergence action at 20 g/ha against AVEFA in % [10]: 100%; Post-emergence action against LOLRI in % [11]: 80%; Post-emergence action at 1.25 g/ha against AMARE in % [12]: 100%; Post-emergence action at 5 g/ha against AMARE in % [12]: 100%; Post-emergence action at 20 g/ha against AMARE in % [12]: 100%; Post-emergence action against ZEAMX (crop plant compatibility) [13]: 20%; Post-emergence action against TRZAS (crop plant compatibility) ([14]; 1.25 g/ha): 10%; Post-emergence action against ORYSA (crop plant compatibility) ([15]; 1.25 g/ha): 0%
